Values after ≈ are worked out from the molar mass of the structure shown. Active and inactive are the calls of the source. No cut-off for these calls is given here.
Legend:
Staphylococcus aureus [1] = experiment: Antibacterial activity against Staphylococcus aureus ATCC 25923 in presence of 4.5 mM KCl; format: functional, organism-based
Pseudomonas aeruginosa [2] = experiment: Antibacterial activity against Pseudomonas aeruginosa ATCC 27853 in presence of 150 mM NaCl; format: functional, organism-based
Cell membrane [3] = experiment: Induction of cell membrane permeability in Escherichia coli assessed as bacterial breakage at 2 times MIC by SEM analysis; format: subcellular
Pseudomonas aeruginosa [4] = experiment: Synergistic antibacterial activity against Pseudomonas aeruginosa assessed as fractional inhibitory concentration index in presence of imipenem incubated for 18 hrs by checkerboard method; format: functional
Escherichia coli [5] = experiment: Synergistic antibacterial activity against Escherichia coli assessed as fractional inhibitory concentration index in presence of polymyxin B incubated for 18 hrs by checkerboard method; format: functional
Pseudomonas aeruginosa [6] = experiment: Induction of drug resistance in Pseudomonas aeruginosa ATCC 27853 assessed as fold increase in MIC incubated for 24 hrs and measured under 40 passages; format: functional
Klebsiella pneumoniae [7] = experiment: Synergistic antibacterial activity against Klebsiella pneumoniae assessed as fractional inhibitory concentration index in presence of rifampin incubated for 18 hrs by checkerboard method; format: functional
Klebsiella pneumoniae [8] = experiment: Synergistic antibacterial activity against Klebsiella pneumoniae assessed as fractional inhibitory concentration index in presence of kanamycin incubated for 18 hrs by checkerboard method; format: functional
Staphylococcus aureus [9] = experiment: Antibacterial activity against Staphylococcus aureus ATCC 25923 assessed as inhibition of bacterial growth incubated for 18 hrs by microbroth dilution assay; format: functional
Klebsiella pneumoniae [10] = experiment: In vivo antibacterial activity against Klebsiella pneumoniae ATCC 700603 infected in male Balb/c mouse lung infection model assessed as reduction in crumpling alveoli at 10 mg/kg, ip measured after 24 hrs by H and E staining based analysis; format: functional, organism-based
Pseudomonas aeruginosa [11] = experiment: Antibacterial activity against Pseudomonas aeruginosa ATCC 27853 in presence of 1 mM MgCl2; format: functional, organism-based
Klebsiella pneumoniae [12] = experiment: Inhibition of biofilm formation in Klebsiella pneumoniae ATCC 700603 at 1 uM incubated for 24 hrs by crystal violet staining based analysis; format: functional, organism-based
Escherichia coli [13] = experiment: Inhibition of biofilm formation in Escherichia coli ATCC 25922 at >= 2 uM incubated for 24 hrs by crystal violet staining based analysis; format: functional, organism-based
Klebsiella pneumoniae [14] = experiment: Inhibition of biofilm formation in Klebsiella pneumoniae ATCC 700603 incubated for 24 hrs by crystal violet staining based analysis; format: functional, organism-based; settings: dose 1-32 µM
Klebsiella pneumoniae [15] = experiment: Antibacterial activity against Klebsiella pneumoniae ATCC 700603 assessed as inhibition of bacterial growth incubated for 18 hrs by microbroth dilution assay; format: functional
Staphylococcus aureus [16] = experiment: Antibacterial activity against Staphylococcus aureus ATCC 25923 in presence of 150 mM NaCl; format: functional, organism-based
Staphylococcus aureus [17] = experiment: Antibacterial activity against Staphylococcus aureus ATCC 25923 in presence of 4 uM FeCl3; format: functional, organism-based
Escherichia coli [18] = experiment: Inhibition of biofilm formation in Escherichia coli ATCC 25922 incubated for 24 hrs by crystal violet staining based analysis; format: functional, organism-based; settings: dose 1-32 µM
Pseudomonas aeruginosa [19] = experiment: Antibacterial activity against Pseudomonas aeruginosa ATCC 27853 in presence of 8 uM ZnCl2; format: functional, organism-based
Cell membrane [20] = experiment: Induction of Cytoplasmic membrane depolarization in Staphylococcus aureus measured for every 10 mins by DiSC3(5) dye based fluorescence method
[21] = Hemolytic activity in Kunming mouse erythrocytes assessed as hemolytic rate at 256 uM incubated for 1 hr by multimode reader analysis relative to control; format: toxicity, cell-based, Erythrocyte; settings: read-out: Activity
Escherichia coli [22] = experiment: Antibacterial activity against Escherichia coli ATCC 25922 assessed as inhibition of bacterial growth incubated for 18 hrs by microbroth dilution assay; format: functional
Klebsiella pneumoniae [23] = experiment: In vivo antibacterial activity against Klebsiella pneumoniae ATCC 700603 infected in male Balb/c mouse lung infection model assessed as reduction in pulmonary bacterial load at 5 mg/kg, ip measured after 24 hrs (reference value: 3.05 x 10^9 CFU/g); format: functional
Escherichia coli [24] = experiment: Synergistic antibacterial activity against Escherichia coli assessed as fractional inhibitory concentration index in presence of rifampin incubated for 18 hrs by checkerboard method; format: functional
Staphylococcus aureus [25] = experiment: Antibacterial activity against Staphylococcus aureus ATCC 25923 in presence of 8 uM ZnCl2; format: functional, organism-based
Cell membrane [26] = experiment: Induction of cell membrane permeability in Escherichia coli assessed as grooves shallower at 2 times MIC by SEM analysis; format: subcellular
Pseudomonas aeruginosa [27] = experiment: Antibacterial activity against Pseudomonas aeruginosa ATCC 27853 assessed as inhibition of bacterial growth incubated for 18 hrs by microbroth dilution assay; format: functional
Staphylococcus aureus [28] = experiment: Antibacterial activity against Staphylococcus aureus ATCC 25923 in presence of 6 uM NH4Cl; format: functional, organism-based
Staphylococcus aureus [29] = experiment: Antibacterial activity against Staphylococcus aureus ATCC 25923 in presence of 2 mM CaCl2; format: functional, organism-based
[30] = test system: Staphylococcus epidermidis; experiment: Antibacterial activity against Staphylococcus epidermidis ATCC 12228 assessed as inhibition of bacterial growth incubated for 18 hrs by microbroth dilution assay; format: functional
Pseudomonas aeruginosa [31] = experiment: Antibacterial activity against Pseudomonas aeruginosa ATCC 27853 in presence of 6 uM NH4Cl; format: functional, organism-based
Cell membrane [32] = experiment: Induction of Outer membrane permeabilization in Escherichia coli assessed as increase in fluorescence intensity incubated for 1 min by NPN-dye based fluorescence analysis; format: subcellular
Cell membrane [33] = experiment: Induction of cell membrane permeability in Escherichia coli assessed as cluster formation at 2 times MIC by SEM analysis; format: subcellular
[34] = Hemolytic activity in Kunming mouse erythrocytes assessed as hemolysis incubated for 1 hr by multimode reader analysis; format: toxicity, cell-based; settings: erythrocyte
Klebsiella pneumoniae [35] = experiment: In vivo antibacterial activity against Klebsiella pneumoniae ATCC 700603 infected in male Balb/c mouse lung infection model assessed as reduction in pulmonary bacterial load at 10 mg/kg, ip measured after 24 hrs (reference value: 3.05 x 10^9 CFU/g); format: functional
Pseudomonas aeruginosa [36] = experiment: Antibacterial activity against Pseudomonas aeruginosa ATCC 27853 in presence of 2 mM CaCl2; format: functional, organism-based
Staphylococcus aureus [37] = experiment: Synergistic antibacterial activity against Staphylococcus aureus assessed as fractional inhibitory concentration index in presence of bacitracin incubated for 18 hrs by checkerboard method; format: functional
[38] = Stability of compound in mouse plasma assessed as degradation of compound by measuring half life incubated for 48 hrs by RP-HPLC analysis; format: ADME, cell-free
[39] = Retention time of the compound by RP-HPLC analysis; format: physicochemical
Klebsiella pneumoniae [40] = experiment: Synergistic antibacterial activity against Klebsiella pneumoniae assessed as fractional inhibitory concentration index in presence of polymyxin B incubated for 18 hrs by checkerboard method; format: functional
Pseudomonas aeruginosa [41] = experiment: Synergistic antibacterial activity against Pseudomonas aeruginosa assessed as fractional inhibitory concentration index in presence of rifampin incubated for 18 hrs by checkerboard method; format: functional
Bacillus subtilis = experiment: Antibacterial activity against Bacillus subtilis ATCC 23857 assessed as inhibition of bacterial growth incubated for 18 hrs by microbroth dilution assay; format: functional
Pseudomonas aeruginosa [42] = experiment: Antibacterial activity against Pseudomonas aeruginosa ATCC 27853 in presence of 4 uM FeCl3; format: functional, organism-based
Pseudomonas aeruginosa [43] = experiment: Inhibition of biofilm formation in Pseudomonas aeruginosa ATCC 27853 incubated for 24 hrs by crystal violet staining based analysis; format: functional, organism-based; settings: dose 1-32 µM
Staphylococcus aureus [44] = experiment: Inhibition of biofilm formation in Staphylococcus aureus ATCC 25923 incubated for 24 hrs by crystal violet staining based analysis; format: functional, organism-based; settings: dose 1-32 µM

In the case of N=C(N)NCCC[C@@H](NC(=O)CNC(=O)[C@H]1CCCN1C(=O)[C@@H](CCCNC(=N)N)NC(=O)[C@@H](Cc1ccccc1)NC(=O)[C@@H](CCCNC(=N)N)NC(=O)[C@@H](Cc1ccccc1)NC(=O)[C@@H](CCCNC(=N)N)NC(=O)[C@H](N)Cc1ccccc1)C(=O)N[C@H](Cc1ccccc1)C(=O)N[C@H](CCCNC(=N)N)C(=O)N[C@H](Cc1ccccc1)C(=O)N[C@H](CCCNC(=N)N)C(=O)N[C@H](Cc1ccccc1)C(N)=O, the Activity (Staphylococcus aureus [1]) is reported as “Active”, the Activity (Pseudomonas aeruginosa [2]) is reported as “Active” and the Activity (Cell membrane [3]) is reported as “Active”. For the same compound, the “fractional inhibitory concentration index (FICI)” value (Pseudomonas aeruginosa [4]) was 0.375, the “fractional inhibitory concentration index (FICI)” value (Escherichia coli [5]) was 0.188 and the “fold change (FC)” value (Pseudomonas aeruginosa [6]) was under 4. For the same compound, the “fractional inhibitory concentration index (FICI)” value (Klebsiella pneumoniae [7]) was 0.313, the “fractional inhibitory concentration index (FICI)” value (Klebsiella pneumoniae [8]) was 0.375 and the MIC (Staphylococcus aureus [9]) was 4 µM (≈ 7.97 µg/mL). For the same compound, the Activity (Klebsiella pneumoniae [10]) was “Active”, the Activity (Pseudomonas aeruginosa [11]) was “Active” and the inhibition (Klebsiella pneumoniae [12]) was “Active; Less Effective Than Polymyxin B”. The inhibition (Escherichia coli [13]) was “Active”, the inhibition (Klebsiella pneumoniae [14]) was “Dose-dependent-effect” and the MIC (Klebsiella pneumoniae [15]) was 8 µM (≈ 15.9 µg/mL). The Activity (Staphylococcus aureus [16]) was “Active”, the Activity (Staphylococcus aureus [17]) was “Active” and the inhibition (Escherichia coli [18]) was “Dose-dependent-effect”. For the same compound, the Activity (Pseudomonas aeruginosa [19]) was “Active”, the Activity (Cell membrane [20]) was “Dose-dependent-effect” and the hemolysis at 1 h, 256 µM [21] was 4.3%. The MIC (Escherichia coli [22]) was 8 µM (≈ 15.9 µg/mL), the Activity (Klebsiella pneumoniae [23]) was 5.98 10^7CFU/g and the “fractional inhibitory concentration index (FICI)” value (Escherichia coli [24]) was 0.25. The Activity (Staphylococcus aureus [25]) was “Active”, the Activity (Cell membrane [26]) was “Active” and the MIC (Pseudomonas aeruginosa [27]) was 4 µM (≈ 7.97 µg/mL). For the same compound, the Activity (Staphylococcus aureus [28]) was “Active”, the Activity (Staphylococcus aureus [29]) was “Active” and the MIC [30] was 2 µM (≈ 3.98 µg/mL). For the same compound, the Activity (Pseudomonas aeruginosa [31]) was “Active”, the Activity (Cell membrane [32]) was “Active” and the Activity (Cell membrane [33]) was “Active”. For the same compound, the MHC10 [34] was over 256 µM, the Activity (Klebsiella pneumoniae [35]) was 2.48 10^7CFU/g and the Activity (Pseudomonas aeruginosa [36]) was “Active”. For the same compound, the “fractional inhibitory concentration index (FICI)” value (Staphylococcus aureus [37]) was 0.375, the half-life [38] was over 48 h and the Retention_time [39] was 14.438 min. For the same compound, the “fractional inhibitory concentration index (FICI)” value (Klebsiella pneumoniae [40]) was 0.188, the “fractional inhibitory concentration index (FICI)” value (Pseudomonas aeruginosa [41]) was 0.313 and the MIC (Bacillus subtilis) was 2 µM (≈ 3.98 µg/mL). The Activity (Pseudomonas aeruginosa [42]) was “Active”, the inhibition (Pseudomonas aeruginosa [43]) was “Dose-dependent-effect” and the inhibition (Staphylococcus aureus [44]) was “Dose-dependent-effect”.

With N=C(N)NCCC[C@H](NC(=O)CNC(=O)[C@H]1CCCN1C(=O)[C@H](CCCNC(=N)N)NC(=O)[C@H](Cc1ccccc1)NC(=O)[C@H](CCCNC(=N)N)NC(=O)[C@H](Cc1ccccc1)NC(=O)[C@H](CCCNC(=N)N)NC(=O)[C@@H](N)Cc1ccccc1)C(=O)N[C@@H](Cc1ccccc1)C(=O)N[C@@H](CCCNC(=N)N)C(=O)N[C@@H](Cc1ccccc1)C(=O)N[C@@H](CCCNC(=N)N)C(=O)N[C@@H](Cc1ccccc1)C(N)=O the Activity (Staphylococcus aureus [1]) was “Active”, the Activity (Pseudomonas aeruginosa [2]) was “Active” and the Activity (Cell membrane [3]) was “Active”. The “fractional inhibitory concentration index (FICI)” value (Pseudomonas aeruginosa [4]) was 0.313, the “fractional inhibitory concentration index (FICI)” value (Escherichia coli [5]) was 0.25 and the “fold change (FC)” value (Pseudomonas aeruginosa [6]) was under 4. For the same compound, the “fractional inhibitory concentration index (FICI)” value (Klebsiella pneumoniae [7]) was 0.313, the “fractional inhibitory concentration index (FICI)” value (Klebsiella pneumoniae [8]) was 0.313 and the MIC (Staphylococcus aureus [9]) was 4 µM (≈ 7.97 µg/mL). The Activity (Klebsiella pneumoniae [10]) was “Active”, the Activity (Pseudomonas aeruginosa [11]) was “Active” and the inhibition (Klebsiella pneumoniae [12]) was “Active; Less Effective Than Polymyxin B”. For the same compound, the inhibition (Escherichia coli [13]) was “Active”, the inhibition (Klebsiella pneumoniae [14]) was “Dose-dependent-effect” and the MIC (Klebsiella pneumoniae [15]) was 8 µM (≈ 15.9 µg/mL). For the same compound, the Activity (Staphylococcus aureus [16]) was “Active”, the Activity (Staphylococcus aureus [17]) was “Active” and the inhibition (Escherichia coli [18]) was “Dose-dependent-effect”. For the same compound, the Activity (Pseudomonas aeruginosa [19]) was “Active”, the Activity (Cell membrane [20]) was “Dose-dependent-effect” and the hemolysis at 1 h, 256 µM [21] was 9.7%. For the same compound, the MIC (Escherichia coli [22]) was 4 µM (≈ 7.97 µg/mL), the Activity (Klebsiella pneumoniae [23]) was 1.52 10^8CFU/g and the “fractional inhibitory concentration index (FICI)” value (Escherichia coli [24]) was 0.313. The Activity (Staphylococcus aureus [25]) was “Active”, the Activity (Cell membrane [26]) was “Active” and the MIC (Pseudomonas aeruginosa [27]) was 4 µM (≈ 7.97 µg/mL). For the same compound, the Activity (Staphylococcus aureus [28]) was “Active”, the Activity (Staphylococcus aureus [29]) was “Active” and the MIC [30] was 2 µM (≈ 3.98 µg/mL). For the same compound, the Activity (Pseudomonas aeruginosa [31]) was “Active”, the Activity (Cell membrane [32]) was “Active” and the Activity (Cell membrane [33]) was “Active”. The MHC10 [34] was 512 µM, the Activity (Klebsiella pneumoniae [35]) was 4.93 10^7CFU/g and the Activity (Pseudomonas aeruginosa [36]) was “Active”. The “fractional inhibitory concentration index (FICI)” value (Staphylococcus aureus [37]) was 0.375, the half-life [38] was 3.03 h and the Retention_time [39] was 14.433 min. For the same compound, the “fractional inhibitory concentration index (FICI)” value (Klebsiella pneumoniae [40]) was 0.188, the “fractional inhibitory concentration index (FICI)” value (Pseudomonas aeruginosa [41]) was 0.313 and the MIC (Bacillus subtilis) was 4 µM (≈ 7.97 µg/mL). For the same compound, the Activity (Pseudomonas aeruginosa [42]) was “Active”, the inhibition (Pseudomonas aeruginosa [43]) was “Dose-dependent-effect” and the inhibition (Staphylococcus aureus [44]) was “Dose-dependent-effect”.
